Results from ChEMBL document CHEMBL4014300, “Synthesis and biological evaluation of novel quinazoline-sulfonamides as anti-cancer agents” (Bioorg Med Chem Lett, 2017).
≈ marks a conversion by molar mass, not a printed value. Calls of active or inactive are those of the source. The rule behind the calls is not given here.

Tests used:
THP-1 [1] = test: Cytotoxicity against human THP1 cells assessed as reduction in cell viability after 24 hrs by MTT assay; assay type: functional, cell-based; conditions: THP-1, 24 h
U-937 [2] = test: Cytotoxicity against human U937 cells assessed as reduction in cell viability after 24 hrs by MTT assay; assay type: functional, cell-based; conditions: U-937, 24 h
SK-OV-3 [3] = test: Cytotoxicity against human SKOV3 cells assessed as reduction in cell viability after 24 hrs by MTT assay; assay type: functional, cell-based; conditions: SK-OV-3, 24 h
DU-145 [4] = test: Cytotoxicity against human DU145 cells assessed as reduction in cell viability after 24 hrs by MTT assay; assay type: functional, cell-based; conditions: DU-145, 24 h
FHC [5] = test: Cytotoxicity against human FHC cells assessed as reduction in cell viability after 24 hrs by MTT assay; assay type: cell-based
COLO 205 [6] = test: Cytotoxicity against human COLO205 cells assessed as reduction in cell viability after 24 hrs by MTT assay; assay type: functional, cell-based; conditions: COLO 205, 24 h
FHC [7] = test: Cytotoxicity against human FHC cells assessed as reduction in cell viability at 100 ug/ml after 24 hrs by MTT assay; assay type: cell-based
THP-1 [8] = test: Cytotoxicity against human THP1 cells assessed as reduction in cell viability at 100 ug/ml after 24 hrs by MTT assay; assay type: functional, cell-based
U-937 [9] = test: Cytotoxicity against human U937 cells assessed as reduction in cell viability at 100 ug/ml after 24 hrs by MTT assay; assay type: functional, cell-based
SK-OV-3 [10] = test: Cytotoxicity against human SKOV3 cells assessed as reduction in cell viability at 100 ug/ml after 24 hrs by MTT assay; assay type: functional, cell-based
DU-145 [11] = test: Cytotoxicity against human DU145 cells assessed as reduction in cell viability at 100 ug/ml after 24 hrs by MTT assay; assay type: functional, cell-based
COLO 205 [12] = test: Cytotoxicity against human COLO205 cells assessed as reduction in cell viability at 100 ug/ml after 24 hrs by MTT assay; assay type: functional, cell-based

COc1cc([C@@H]2c3cc4c(cc3[C@@H](O[C@@H]3O[C@@H]5CO[C@@H](C)O[C@H]5[C@H](O)[C@H]3O)[C@H]3COC(=O)[C@H]23)OCO4)cc(OC)c1O [ETOPOSIDE]
IC50 (THP-1 [1]): 4.42 µg/mL (≈ 7.51 µM)
IC50 (U-937 [2]): 2.89 µg/mL (≈ 4.91 µM)
IC50 (SK-OV-3 [3]): 3.84 µg/mL (≈ 6.52 µM)
IC50 (DU-145 [4]): 6.17 µg/mL (≈ 10.5 µM)
IC50 (FHC [5]): 49.3 µg/mL (≈ 83.8 µM)
IC50 (COLO 205 [6]): 5.12 µg/mL (≈ 8.7 µM)

COc1ccc(S(=O)(=O)Nc2nc(Cl)nc3cc(OC)c(OC)cc23)cc1C
IC50 (THP-1 [1]): 79 µg/mL (≈ 186 µM)
IC50 (U-937 [2]): 41.1 µg/mL (≈ 96.9 µM)
IC50 (SK-OV-3 [3]): 68.1 µg/mL (≈ 161 µM)
IC50 (DU-145 [4]): 39.5 µg/mL (≈ 93.1 µM)
Activity (FHC [7]): Non-Toxic
IC50 (COLO 205 [6]): 57 µg/mL (≈ 134 µM)

COc1cc2nc(N3CCCC3)nc(NS(=O)(=O)c3cccs3)c2cc1OC
Activity (THP-1 [8]): inactive
Activity (U-937 [9]): inactive
Activity (SK-OV-3 [10]): inactive
Activity (DU-145 [11]): inactive
Activity (COLO 205 [12]): inactive
Activity (FHC [7]): Non-Toxic

COc1cc2nc(Cl)nc(NS(=O)(=O)C3CC3)c2cc1OC
Activity (THP-1 [8]): inactive
Activity (U-937 [9]): inactive
Activity (SK-OV-3 [10]): inactive
Activity (DU-145 [11]): inactive
Activity (COLO 205 [12]): inactive
Activity (FHC [7]): Non-Toxic

COc1cc2nc(Cl)nc(NS(=O)(=O)c3ccccc3)c2cc1OC
IC50 (THP-1 [1]): 8.17 µg/mL (≈ 21.5 µM)
IC50 (U-937 [2]): 6.06 µg/mL (≈ 16 µM)
IC50 (SK-OV-3 [3]): 9.23 µg/mL (≈ 24.3 µM)
IC50 (DU-145 [4]): 12.3 µg/mL (≈ 32.5 µM)
IC50 (FHC [5]): 73 µg/mL (≈ 192 µM)
IC50 (COLO 205 [6]): 19 µg/mL (≈ 50.1 µM)

COc1cc2nc(N3CCOCC3)nc(NS(=O)(=O)c3ccc(C)cc3)c2cc1OC
IC50 (THP-1 [1]): 92.5 µg/mL (≈ 208 µM)
Activity (U-937 [9]): inactive
Activity (SK-OV-3 [10]): inactive
IC50 (DU-145 [4]): 51.3 µg/mL (≈ 115 µM)
Activity (FHC [7]): Non-Toxic
IC50 (COLO 205 [6]): 44.2 µg/mL (≈ 99.4 µM)

COc1cc2nc(N3CCOCC3)nc(NS(=O)(=O)c3cccc(C(F)(F)F)c3)c2cc1OC
IC50 (THP-1 [1]): 38.8 µg/mL (≈ 77.9 µM)
IC50 (U-937 [2]): 28.7 µg/mL (≈ 57.6 µM)
IC50 (SK-OV-3 [3]): 50.5 µg/mL (≈ 101 µM)
IC50 (DU-145 [4]): 45.8 µg/mL (≈ 91.8 µM)
Activity (FHC [7]): Non-Toxic
IC50 (COLO 205 [6]): 61.8 µg/mL (≈ 124 µM)

COc1cc2nc(Cl)nc(NS(=O)(=O)Cc3cccc(I)c3)c2cc1OC
IC50 (THP-1 [1]): 96.2 µg/mL (≈ 185 µM)
IC50 (U-937 [2]): 66.5 µg/mL (≈ 128 µM)
Activity (SK-OV-3 [10]): inactive
Activity (DU-145 [11]): inactive
Activity (COLO 205 [12]): inactive
Activity (FHC [7]): Non-Toxic

COc1cc2nc(Cl)nc(NS(=O)(=O)Cc3ccccc3)c2cc1OC
Activity (THP-1 [8]): inactive
IC50 (U-937 [2]): 91.7 µg/mL (≈ 233 µM)
Activity (SK-OV-3 [10]): inactive
Activity (DU-145 [11]): inactive
Activity (COLO 205 [12]): inactive
Activity (FHC [7]): Non-Toxic

COc1cc2nc(Cl)nc(NS(=O)(=O)c3ccc(C)cc3C)c2cc1OC
IC50 (THP-1 [1]): 40.4 µg/mL (≈ 99.1 µM)
IC50 (U-937 [2]): 65.1 µg/mL (≈ 160 µM)
IC50 (SK-OV-3 [3]): 25.8 µg/mL (≈ 63.2 µM)
IC50 (DU-145 [4]): 47.8 µg/mL (≈ 117 µM)
IC50 (FHC [5]): 73.1 µg/mL (≈ 179 µM)
IC50 (COLO 205 [6]): 49 µg/mL (≈ 120 µM)

COc1cc2nc(Cl)nc(NS(=O)(=O)c3ccc(C)cc3)c2cc1OC
IC50 (THP-1 [1]): 33.5 µg/mL (≈ 85.2 µM)
IC50 (U-937 [2]): 39.9 µg/mL (≈ 101 µM)
Activity (SK-OV-3 [10]): inactive
IC50 (DU-145 [4]): 44.2 µg/mL (≈ 112 µM)
Activity (FHC [7]): Non-Toxic
IC50 (COLO 205 [6]): 91.3 µg/mL (≈ 232 µM)

COc1cc2nc(N3CCCC3)nc(NS(=O)(=O)c3ccc(C)cc3)c2cc1OC
IC50 (THP-1 [1]): 7.06 µg/mL (≈ 16.5 µM)
IC50 (U-937 [2]): 8.61 µg/mL (≈ 20.1 µM)
IC50 (SK-OV-3 [3]): 20 µg/mL (≈ 46.7 µM)
IC50 (DU-145 [4]): 14.1 µg/mL (≈ 33 µM)
IC50 (FHC [5]): 48.1 µg/mL (≈ 112 µM)
IC50 (COLO 205 [6]): 24.1 µg/mL (≈ 56.3 µM)

COc1cc2nc(Cl)nc(NS(=O)(=O)c3cccs3)c2cc1OC
IC50 (THP-1 [1]): 11.2 µg/mL (≈ 29.1 µM)
IC50 (U-937 [2]): 10.1 µg/mL (≈ 26.1 µM)
IC50 (SK-OV-3 [3]): 19.1 µg/mL (≈ 49.4 µM)
IC50 (DU-145 [4]): 16.4 µg/mL (≈ 42.6 µM)
IC50 (FHC [5]): 98.7 µg/mL (≈ 256 µM)
IC50 (COLO 205 [6]): 27.5 µg/mL (≈ 71.3 µM)

COc1cc2nc(Cl)nc(NS(=O)(=O)c3cccc(C(F)(F)F)c3)c2cc1OC
IC50 (THP-1 [1]): 36.4 µg/mL (≈ 81.3 µM)
IC50 (U-937 [2]): 59 µg/mL (≈ 132 µM)
IC50 (SK-OV-3 [3]): 32.3 µg/mL (≈ 72.1 µM)
IC50 (DU-145 [4]): 23.1 µg/mL (≈ 51.5 µM)
Activity (FHC [7]): Non-Toxic
IC50 (COLO 205 [6]): 99 µg/mL (≈ 221 µM)

COc1ccc(S(=O)(=O)Nc2nc(Cl)nc3cc(OC)c(OC)cc23)cc1
Activity (THP-1 [8]): inactive
Activity (U-937 [9]): inactive
Activity (SK-OV-3 [10]): inactive
Activity (DU-145 [11]): inactive
Activity (COLO 205 [12]): inactive
Activity (FHC [7]): Non-Toxic

COc1cc2nc(N3CCCC3)nc(NS(=O)(=O)C3CC3)c2cc1OC
IC50 (THP-1 [1]): 9.13 µg/mL (≈ 24.1 µM)
IC50 (U-937 [2]): 6.43 µg/mL (≈ 17 µM)
IC50 (SK-OV-3 [3]): 17.6 µg/mL (≈ 46.4 µM)
IC50 (DU-145 [4]): 11.1 µg/mL (≈ 29.3 µM)
IC50 (FHC [5]): 66.6 µg/mL (≈ 176 µM)
IC50 (COLO 205 [6]): 10.2 µg/mL (≈ 26.8 µM)

COc1cc2nc(N3CCOCC3)nc(NS(=O)(=O)C3CC3)c2cc1OC
IC50 (THP-1 [1]): 13.8 µg/mL (≈ 34.9 µM)
IC50 (U-937 [2]): 8.09 µg/mL (≈ 20.5 µM)
IC50 (SK-OV-3 [3]): 32.1 µg/mL (≈ 81.5 µM)
IC50 (DU-145 [4]): 25.1 µg/mL (≈ 63.5 µM)
IC50 (FHC [5]): 73.2 µg/mL (≈ 186 µM)
IC50 (COLO 205 [6]): 49.1 µg/mL (≈ 124 µM)

COc1cc2nc(N3CCOCC3)nc(NS(=O)(=O)c3cccc4c3OCO4)c2cc1OC
IC50 (THP-1 [1]): 71.6 µg/mL (≈ 151 µM)
Activity (U-937 [9]): inactive
Activity (SK-OV-3 [10]): inactive
Activity (DU-145 [11]): inactive
Activity (COLO 205 [12]): inactive
Activity (FHC [7]): Non-Toxic

COc1cc2nc(Cl)nc(NS(C)(=O)=O)c2cc1OC
IC50 (THP-1 [1]): 99.7 µg/mL (≈ 314 µM)
Activity (U-937 [9]): inactive
IC50 (SK-OV-3 [3]): 88 µg/mL (≈ 277 µM)
Activity (DU-145 [11]): inactive
Activity (COLO 205 [12]): inactive
IC50 (FHC [5]): 88.1 µg/mL (≈ 277 µM)

COc1cc2nc(Cl)nc(NS(=O)(=O)c3cccc4ccccc34)c2cc1OC
IC50 (THP-1 [1]): 82.4 µg/mL (≈ 192 µM)
IC50 (U-937 [2]): 35.3 µg/mL (≈ 82 µM)
IC50 (SK-OV-3 [3]): 95.3 µg/mL (≈ 222 µM)
IC50 (DU-145 [4]): 63.6 µg/mL (≈ 148 µM)
Activity (COLO 205 [12]): inactive
Activity (FHC [7]): Non-Toxic

COc1cc2nc(Cl)nc(NS(=O)(=O)c3cccc4c3OCO4)c2cc1OC
IC50 (THP-1 [1]): 48.6 µg/mL (≈ 115 µM)
IC50 (U-937 [2]): 89.6 µg/mL (≈ 211 µM)
IC50 (SK-OV-3 [3]): 78.1 µg/mL (≈ 184 µM)
Activity (DU-145 [11]): inactive
Activity (COLO 205 [12]): inactive
Activity (FHC [7]): Non-Toxic

COc1cc2nc(N3CCCC3)nc(NS(=O)(=O)c3cccc(C(F)(F)F)c3)c2cc1OC
IC50 (THP-1 [1]): 15.9 µg/mL (≈ 32.9 µM)
IC50 (U-937 [2]): 16 µg/mL (≈ 33.2 µM)
IC50 (SK-OV-3 [3]): 22.1 µg/mL (≈ 45.9 µM)
IC50 (DU-145 [4]): 65.1 µg/mL (≈ 135 µM)
Activity (FHC [7]): Non-Toxic
IC50 (COLO 205 [6]): 78 µg/mL (≈ 162 µM)
